# In patent US6407233B1, “Halogen pyrimidines and its use thereof as parasite abatement means” (Bayer Aktiengesellschaft, priority 1996, dated 2002):
# Key:
# [1] = test system: Fusarium nivale var. nivale; test: Fusarium nivale (var. nivale) test (wheat)/curative; conditions: curative (sprayed 24 hours after inoculation), application rate 250 g/ha, evaluated 4 days after inoculation
# Experimental: Fusarium nivale (var. nivale) Test (Wheat)/curative
# Solvent: 100 parts by weight of dimethylformamide
# Emulsifier: 0.25 part by weight of alkylaryl polyglycol ether
# To test for curative activity, young plants are sprayed with a conidia suspension of Fusarium nivale var. nivale.
# The plants remain in an incubation cabin at 15° C. and a relative atmospheric humidity of 100% for 24 hours.
# After the spray coating has dried on, the plants remain in a greenhouse under translucent incubation hoods at a temperature of about 15° C. and a relative atmospheric humidity of about 100%.
# (§1) The test is evaluated 4 days after inoculation.
# [2] = test system: Pseudocercosporella herpotrichoides; test: Pseudocercosporella herpotrichoides test (wheat)/protective; assay type: in vivo; conditions: protective, application rate 250 g/ha, evaluated 21 days after inoculation
# Experimental: The test is evaluated 21 days after inoculation.
# [3] = test system: Erysiphe graminis f.sp. hordei; test: Erysiphe test (barley)/curative; assay type: in vivo; conditions: curative (sprayed 48 hours after inoculation), application rate 250 g/ha, evaluated 7 days after inoculation
# [4] = test system: Fusarium nivale var. majus; test: Fusarium nivale (var. majus) test (wheat)/protective; conditions: protective, application rate 250 g/ha, evaluated 4 days after inoculation
# Experimental: Fusarium nivale (var. Majus) Test (Wheat)/protective
# (§2) Solvent: 10 parts by weight of N-methylpyrrolidone
# (§3) Emulsifier: 0.6 part by weight of alkylaryl polyglycol ether
# After the spray coating has dried on, the plants are sprayed with a conidia suspension of Fusarium nivale var. majus.
# (§4) The plants are placed in a greenhouse at a temperature of about 15° C. and a relative atmospheric humidity of about 100% under translucent incubation hoods.
# as §1
# [5] = test system: Erysiphe graminis f.sp. hordei; test: Erysiphe test (barley)/protective; assay type: in vivo; conditions: protective, application rate 250 g/ha, evaluated 7 days after inoculation
# Experimental: The test is evaluated 7 days after the inoculation.
# [6] = test system: Fusarium nivale var. nivale; test: Fusarium nivale (var. nivale) test (wheat)/protective; conditions: protective, application rate 250 g/ha, evaluated 4 days after inoculation
# Experimental: Fusarium nivale (var. nivale) Test (Wheat)/protective
# as §2, §3
# After the spray coating has dried on, the plants are sprayed with a conidia suspension of Fusarium nivale var. nivale.
# as §4, §1
smiles,measurement,setting,value
C=C(C)Cc1ccccc1Oc1ncnc(Oc2ccccc2C(=NOC)C2=NOCCO2)c1F [Example 31],efficacy in comparison with the untreated control,[1],100%
CON=C(C1=NOCCO1)c1ccccc1Oc1ncnc(Oc2ccccc2C(=O)NCc2ccccc2)c1F [Example 69],efficacy in comparison with the untreated control,[2],100%
"CO/N=C(/C1=NOCCO1)c1ccccc1Oc1ncnc(Oc2ccccc2Cl)c1F [Example 1, 3-{1-[2-(4-<2-chlorophenoxy>-5-fluoropyrimid-6-yloxy)-phenyl]-1-(methoximino)-methyl}-5,6-dihydro-1,4,2-dioxazine]",efficacy in comparison with the untreated control,[3],100%
CON=C(C1=NOCCO1)c1ccccc1Oc1ncnc(Oc2cccc3c2CC(C)(C)O3)c1F [Example 42],efficacy in comparison with the untreated control,[4],100%
CON=C(C1=NOCCO1)c1ccccc1Oc1ncnc(Oc2cc(C)cc(C)c2C)c1F [Example 14],efficacy in comparison with the untreated control,[4],100%
CON=C(C1=NOCCO1)c1ccccc1Oc1ncnc(Oc2ccccc2OCc2ccccc2)c1F [Example 33],efficacy in comparison with the untreated control,[4],100%
CON=C(C1=NOCCO1)c1ccccc1Oc1ncnc(Oc2ccccc2Cn2cncn2)c1F [Example 71],efficacy in comparison with the untreated control,[2],100%
CON=C(C1=NOCCO1)c1ccccc1Oc1ncnc(Oc2ccccc2C2OCC(C)(C)CO2)c1F [Example 59],efficacy in comparison with the untreated control,[5],100%
CCCc1ccccc1Oc1ncnc(Oc2ccccc2C(=NOC)C2=NOCCO2)c1F [Example 34],efficacy in comparison with the untreated control,[1],100%
same,efficacy in comparison with the untreated control,[6],100%
